Test system: IgA in the bile
Experiment: IgA in bile by indirect ELISA in birds given 1027 with or without adjuvants
Type: in vivo, chickens
Details: day 21 after oral vaccine and adjuvant in 1027
Text: IgA is the antibody class associated with resistance to diseases which attack the intestinal mucosa, such as coccidiosis.
The data presented in FIG. 5 were obtained by indirect enzyme linked immunosorbent assay (ELISA) using monoclonal mouse anti-chicken IgA as the first antibody, polyclonal goat anti-chicken IgA as the second antibody, and biotin-conjugated anti-goat immunoglobulin for detection. Samples were read on an automated ELISA plate reader, and are corrected for differences in dilution.

SMILES: c1ccc([C@H]2CN3CCSC3=N2)cc1 [levamisole]
- IgA in the bile vs 1027 alone: higher day 21 biliary IgA levels

— patent US6733759B2, “Nutrient formulation and process for enhancing the health, livability, cumulative weight gain or feed efficiency in poultry and other animals” (Novus International, Inc., priority 1995, dated 2004)
